Measurements reported in publication PMC5600900 (Journal of medicinal chemistry, 2016).

Target: WT-CXCL12 (Homo sapiens, UniProt P48061)
Experiment: 2D 1H-15N SOFAST-HMQC NMR titration, binding to WT-CXCL12
Conditions: 2D 1H-15N SOFAST-HMQC screen of docking hits

| Compound | binding to WT-CXCL12 (chemical shift perturbations) |
| --- | --- |
| CC(C)O.CCCOc1ccc(C(Nc2ccc(F)cc2)P(=O)(O)O)cc1 (stereo not shown) [compound 6] | induced chemical shift perturbations to residues associated with the I4/I6 binding site |
| O=C(O)CCn1cc(C(=O)c2ccccc2O)cc1-c1ccncc1 [compound 4] | bind non-specifically |
| O=C(O)CC1c2ccccc2CCN1C(=O)Nc1cccc(F)c1 (stereo not shown) [compound 7] | induced chemical shift perturbations to residues associated with the I4/I6 binding site |
| COc1ccc(C2C(C(=O)O)CC(=O)N2Cc2ccsc2)cc1 (stereo not shown) [compound 5] | bind non-specifically |
